The source of these data is PMC3929365, “Benzimidazoisoquinolines: A New Class of Rapidly Metabolized Aryl Hydrocarbon Receptor (AhR) Ligands that Induce AhR-Dependent Tregs and Prevent Murine Graft-Versus-Host Disease” (PLoS ONE, 2014).

The structures appear in SMILES notation. pIC50: −log10 of the molar value.

The subject of data set [1] is AhR.
Protocol: The AhR reporter gene assay was performed as previously described (20–22).
B) Hepa1 cells expressing endogenous AhR were transfected with a XRE-luciferase reporter gene. […] The mean luciferase activity is shown with SEM. C) Dose response curves for the competitive inhibition of [^3H] 3-MC binding to AhR.
3-methylcholanthrene (3-MC) to AhR (Fig. 5C).
In data set [2] the test system is AhR. Nature of the data set: Electrophoretic mobility shift assay, binding of AhR to XRE. As to conditions: 10 nM, 2 h, Hepa1c1c7 whole cell lysate. It counts as biochemical, mouse. As for the experimental part: (§1) Figure 1 10-Cl-BBQ is a potent AhR ligand. A) Structure of 10-Cl-BBQ. […] C) Hepa-1 cells expressing endogenous AhR were transfected with an AhR-regulated luciferase reporter gene (xenobiotic responsive element (XRE)-MMTVpromoter-Luc) and the reporter gene activity was measured after 12 h of treatment with 1 nM TCDD or the indicated concentrations of 10-Cl-BBQ. D) Alteration in proteolytic pattern of AhR by 10-Cl-BBQ. Whole cell lysate (45 µg of protein) from mouse hepatoma Hepa1c1c7 cells was incubated with 100 nM 10-Cl-BBQ or 0.1% DMSO for 1 h at RT and proteolyzed by 1 µg/ml subtilisin for 1, 2, 4, and 8 min at RT. Proteolytic cleavage products of AhR were analyzed by immunoblot. E) Electrophoretic mobility shift assay showing the ligand-stimulated binding of AhR to XRE. Whole cell lysate (18 µg of protein) from mouse hepatoma Hepa1c1c7 cells was incubated with 10 nM 10-Cl-BBQ or 0.1% DMSO for 2 h at room temperature and ^32P-labeled oligonucleotide containing XRE for 20 min at room temperature. The samples were electrophoresed on a native polyacrylamide gel and the signal was visualized by Phosphor Imager. Unlabeled competitor XRE or antibody (Ab) against AhR or Arnt was co-incubated with ^32P-labeled oligonucleotide.
In general terms: Mobility shift assays separate free from complexed probe on a gel.

Data set [3] deals with AhR. The experiment in a line: AhR-regulated (XRE) luciferase reporter gene assay in Hepa-1 cells. It counts as cell-based, mouse. The following applies: nanomolar concentrations, 12 h, Hepa-1 cells. The procedure:
as §1
The mean luciferase activity is shown with SEM. […] 3-MC binding to AhR.
(In a reporter assay the amount or activity of a reporter protein is the signal.)

For data set [4], the system named is AhR. Nature of the data set: Cytosol to nuclear translocation of AhR in Hepa-1 cells. The following applies: 10 nM, 1 h. It counts as cell-based, mouse.
In another data set the test system is Foxp3. The experiment in a line: Lymph node gene expression (RT-qPCR) during the GVH response. It counts as in vivo, B6D2F1 host mice. As to conditions: any dose (0.4, 2 or 10 mg/kg/day), lymph nodes, 48 h. As for the experimental part:
RNA was isolated from lymph nodes of B6D2F1 host mice with the RNeasy Mini Kit (Qiagen). cDNA was prepared from at least 1 µg RNA in a 2-step reaction using the ReactionReady First Strand cDNA synthesis kit (SA Biosciences) according to the manufacturer’s instructions and Superscript III reverse-transcriptase (Life Technologies). The qPCR reaction was carried out on an ABI PRISM 7500 Real-Time PCR system (Applied Biosystems). The reaction mixture consisted of SYBR Green/ROX qPCR Master Mix (SA Bioscience), 2–10 ng-RNA equivalent cDNA and 1 µl of the gene-specific commercial primer sets (SA Biosciences). The following conditions were used: 10 min at 95°C (1 cycle), 15 s at 95°C and 1 min at 60°C (40 cycles). […] The raw data was normalized to Actb and the fold-change was calculated by the ΔΔCt method using vehicle-treated sample values as the control.
Figure 3 10-Cl-BBQ induces an AhR-dependent Treg phenotype 48 h after initiating the GVH response. […] E) In the same mice as in D, lymph nodes were harvested and analyzed for expression of genes that were previously shown to increase under the same GVH conditions with TCDD treatment (13). […] Changes in gene expression were calculated relative to the β-actin gene, and the fold-induction was calculated by the ΔΔCt method using the vehicle-treated samples as a control. * = p<0.05 relative to vehicle treatment. […]
On the technique in general: Real-time PCR tracks product formation cycle by cycle.

Data set [5] has as its system AhR. The experiment in a line: Subtilisin proteolysis pattern of AhR in Hepa1c1c7 whole cell lysate. Type of data set: biochemical, mouse. As to conditions: 100 nM, 1 h, 1 µg/ml subtilisin. As for the experimental part:
as §1

As a reminder, the pIC50 is −log10 of the IC50, conventionally taken in molar units. Low readings indicate a large IC50, high ones a small IC50. In the data set with AhR [1], `O=c1c2cccc3cccc(c32)c2nc3ccc(Cl)cc3n12` [10-Cl-BBQ, 10-chloro-7H-benzimidazo[2,1-a]benzo[de]isoquinolin-7-one] showed a pIC50 of 8.59. In addition, in the data set on AhR [2], the “DNA binding of AhR (XRE)” value is “specifically induced DNA binding of AhR”. The “activation of the AhR-regulated reporter gene” value with AhR [3] is listed as “activated the AhR-regulated reporter gene”. Further, the “cytosol to nuclear translocation of AhR” value in the data set with AhR [4] is listed as “promoted cytosol to nuclear translocation of AhR”. Also, the “expression of Foxp3” value with Foxp3 was “did not induce expression of Foxp3”. For the same compound, in the data set with AhR [5], the “proteolysis of AhR” value is listed as “delayed its proteolysis”.
